Entries after “also recorded” stand apart in the source; their conditions may differ.
How the values were obtained:
HeLa cells = test: Flow cytometry (FACS) DNA content / cell cycle profile; format: cell-based, human; conditions: 24 h; for % of cells 2<n<4 / % of cells 2n / % of cells 4n / % of cells <2n / % of cells >4n: HeLa cells; for effect on DNA content / distribution of cells in the cell cycle stages: ZM1 2 µM, (A) and (C) increasing concentrations
Description: Adherent HeLa cells were routinely passaged and maintained in D-MEM medium supplemented with 10% Fetal Bovine Serum (FBS), 1% Penicillin/Streptomycin and 2 mM L-Glutamine. The cells were cultured at 37 °C; 5% CO2. hTERT-RPE1 cells were grown in DMEM with 10% fetal bovine serum. HeLa cells constitutively expressing green fluorescent protein-conjugated Histone H2B and mRed fluorescent protein-conjugated α-tubulin were maintained in D-MEM medium supplemented with 10% Fetal Bovine Serum (FBS), 1% Penicillin/Streptomycin, 2 mM L-Glutamine and 0.5 µg/mL Puromycin and cultured at 37 °C; 5% CO2.
After treatment, FACS analysis was performed on a BD FACSCanto™ Flow Cytometer (Cat.No. 335860 BD Biosciences) using FACSDiva Software. Cells were trypsinized, washed wish PBS and fixed overnight in EtOH (-20°C). After washing with PBS, cells were stained with a propidium iodide solution (PI; 15 µg/mL)/ RNase A (30 µg/mL) for 30 min at 37 °C. RNase was added to avoid signals caused by the binding of PI to RNA.
We first examined by flow cytometry the cell cycle profiles of HeLa cells incubated in medium containing increasing concentrations of any of (A) or (C) for 24 h.

Flt-4 (VEGFR3) = biological target: T1, Flt-4 (VEGFR3) (Homo sapiens, UniProt P35916); test: RTK-Assay (ELISA, chemiluminescence); format: biochemical; conditions: read-out: IC50 Flt-4 (VEGFR 3)
T1 construct: GST (N); purchased Biomol
T1 sequence (P35916 25-1363, species assumed): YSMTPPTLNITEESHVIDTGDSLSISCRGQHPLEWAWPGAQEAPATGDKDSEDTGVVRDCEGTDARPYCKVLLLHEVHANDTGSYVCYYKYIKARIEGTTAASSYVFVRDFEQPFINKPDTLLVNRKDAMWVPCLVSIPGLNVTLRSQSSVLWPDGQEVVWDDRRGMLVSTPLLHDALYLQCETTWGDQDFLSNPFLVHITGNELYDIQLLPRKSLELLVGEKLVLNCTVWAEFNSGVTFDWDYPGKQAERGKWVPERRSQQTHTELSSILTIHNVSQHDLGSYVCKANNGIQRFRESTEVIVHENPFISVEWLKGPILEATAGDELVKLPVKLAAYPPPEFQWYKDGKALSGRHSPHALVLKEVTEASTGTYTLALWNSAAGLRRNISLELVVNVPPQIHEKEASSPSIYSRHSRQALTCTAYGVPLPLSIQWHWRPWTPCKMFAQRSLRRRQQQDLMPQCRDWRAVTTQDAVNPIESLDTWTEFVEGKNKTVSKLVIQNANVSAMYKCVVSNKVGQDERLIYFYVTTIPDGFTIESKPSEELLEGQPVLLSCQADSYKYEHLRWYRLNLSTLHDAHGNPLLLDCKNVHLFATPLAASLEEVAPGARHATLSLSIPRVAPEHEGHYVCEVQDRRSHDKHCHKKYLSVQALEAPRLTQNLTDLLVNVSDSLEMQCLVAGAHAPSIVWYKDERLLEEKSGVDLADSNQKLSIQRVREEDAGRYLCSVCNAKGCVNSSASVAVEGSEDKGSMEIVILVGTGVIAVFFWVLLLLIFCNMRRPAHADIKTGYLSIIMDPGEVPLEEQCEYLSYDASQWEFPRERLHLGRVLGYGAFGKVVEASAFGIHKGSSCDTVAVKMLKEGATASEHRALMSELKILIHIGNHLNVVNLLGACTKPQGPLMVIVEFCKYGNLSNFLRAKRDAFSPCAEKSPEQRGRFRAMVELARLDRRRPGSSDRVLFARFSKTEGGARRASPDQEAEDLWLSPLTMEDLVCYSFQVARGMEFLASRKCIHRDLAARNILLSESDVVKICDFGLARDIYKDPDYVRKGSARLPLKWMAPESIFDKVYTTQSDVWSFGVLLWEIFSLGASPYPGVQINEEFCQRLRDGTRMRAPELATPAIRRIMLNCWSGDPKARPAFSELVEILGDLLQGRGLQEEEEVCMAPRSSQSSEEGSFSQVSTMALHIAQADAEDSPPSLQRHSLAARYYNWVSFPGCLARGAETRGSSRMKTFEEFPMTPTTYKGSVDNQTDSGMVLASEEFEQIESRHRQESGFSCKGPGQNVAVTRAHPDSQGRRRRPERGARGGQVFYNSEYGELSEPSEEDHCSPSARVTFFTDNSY
Description: (§1) To determine the IC50 of receptor-tyrosine-kinase an assay based on the ELISA-principle using kinases from Biomol (N-terminally fused to GST), POD-coupled antibody from Calbiochem (PY20) and BM chemiluminescence ELISA substrate from Roche was followed.
(§2) In short, a white 96 wells microplate was incubated overnight with 100 µl/well of the substrate solution (poly-Glu-Tyr diluted with PBS to 100 µg/ml) at 4 °C. The solution was removed and the plate was washed twice for 2 min with PBS-T. Afterwards the kinase solution (50 µl/well)( KDR (VEGFR2), 5 ng; Flt4 (VEGFR3), 20 ng; EGFR, 5 ng; IGFR, 15 ng; FGFR, 10 ng and Tie2, 20 ng) and the inhibitor solution (25 µl/well) were added to each well. To perform positive and negative control, 5% aqueous DMSO (25 µl/well) were used instead of inhibitor solution. Addition of ATP solution (25 µl/well) started the reaction, whereas 40 mM MnCl2 solution (25 µl/well) was added to the negative control instead of ATP. After incubation under mild shaking conditions for 30 min at rt the plate was washed with PBS-T (3 x 2 min) and subsequently incubated with antibody solution (anti-Phosphotyrosine-antibody (POD-coupled) diluted 1:10.000 in PBS-T + 0,2% (m/v) BSA)(100 µl/well) for 1 h again while shaking. In the end the plate was washed with PBS-T (3x5 min) and provided with the chemiluminescence substrate (50 µl/well). After 3 min the occurring luminescence was measured using a luminometer. A positive control was measured without inhibitor to determine the activity of the kinase, a negative control without inhibitor and ATP to abstract the background signal from the results. For determination of IC50 values, the relative luminescence units per second (RLU/s) were blotted against the inhibitor concentrations. In doing so each concentration measurement was done triplicate and at least 5 different inhibitor concentrations were used to determine IC50 value.
(§3) This assay is based on the ELISA-principle using kinases from Biomol (N-terminally fused to GST), POD-coupled antibody from Calbiochem (PY20) and BM chemiluminescence ELISA substrate from Roche.
(§4) Each well of a 96 well microplate (white, flat bottom, Greiner, Lumitrac600) was covered with a kinase polypeptide substrate containing glutamate and tyrosine. The substrate was incubated with a kinase, a defined inhibitor concentration and ATP. After kinase inhibitor depending phosphorylation of the substrate a POD-coupled antibody was added that selectively binds to phosphorylated tyrosine. Finally, a chemiluminescence reagent was added and light emission measured using an Orion Microplate Luminometer (Berthold).
(§5) The detected counts correlate directly with the amount of phosphorylated tyrosine and indirectly with the activity of the inhibitor.
(§6) A positive control was measured without inhibitor to determine the activity of the kinase, a negative control without inhibitor and ATP to abstract the background signal from the results. For determination of IC50 values, the relative luminescence units per second (RLU/s) were blotted against the inhibitor concentrations. In doing so each concentration measurement was done triplicate and at least 5 different inhibitor concentrations were used to determine IC50 value.
(§7) The following solutions were prepared for the receptor-tyrosine-kinase assay: - PBS (10x) 1 g KCl, 1 g KH2PO4, 40 g NaCl, 13.2 g Na2HPO4, ad 1 l H2O - PBST (1x) PBS 10x + 0,5% Tween20 → diluted 1:10 - substrate poly-Glu-Tyr 4:1 (10mg/ml in PBS) → diluted with PBS to 100µg/ml - kinase buffer 100mM HEPES, 100mM NaCl, 0.1mM Na3VO4 - kinase solution kinase buffer, kinase stock solution diluted to reach the following concentration defined in the table Table "kinase dilution" […]

IGFR = biological target: T2, IGFR (Homo sapiens, UniProt P08069); test: RTK-Assay (ELISA, chemiluminescence); format: biochemical
T2 construct: GST (N); purchased Biomol
T2 sequence (P08069 31-1367): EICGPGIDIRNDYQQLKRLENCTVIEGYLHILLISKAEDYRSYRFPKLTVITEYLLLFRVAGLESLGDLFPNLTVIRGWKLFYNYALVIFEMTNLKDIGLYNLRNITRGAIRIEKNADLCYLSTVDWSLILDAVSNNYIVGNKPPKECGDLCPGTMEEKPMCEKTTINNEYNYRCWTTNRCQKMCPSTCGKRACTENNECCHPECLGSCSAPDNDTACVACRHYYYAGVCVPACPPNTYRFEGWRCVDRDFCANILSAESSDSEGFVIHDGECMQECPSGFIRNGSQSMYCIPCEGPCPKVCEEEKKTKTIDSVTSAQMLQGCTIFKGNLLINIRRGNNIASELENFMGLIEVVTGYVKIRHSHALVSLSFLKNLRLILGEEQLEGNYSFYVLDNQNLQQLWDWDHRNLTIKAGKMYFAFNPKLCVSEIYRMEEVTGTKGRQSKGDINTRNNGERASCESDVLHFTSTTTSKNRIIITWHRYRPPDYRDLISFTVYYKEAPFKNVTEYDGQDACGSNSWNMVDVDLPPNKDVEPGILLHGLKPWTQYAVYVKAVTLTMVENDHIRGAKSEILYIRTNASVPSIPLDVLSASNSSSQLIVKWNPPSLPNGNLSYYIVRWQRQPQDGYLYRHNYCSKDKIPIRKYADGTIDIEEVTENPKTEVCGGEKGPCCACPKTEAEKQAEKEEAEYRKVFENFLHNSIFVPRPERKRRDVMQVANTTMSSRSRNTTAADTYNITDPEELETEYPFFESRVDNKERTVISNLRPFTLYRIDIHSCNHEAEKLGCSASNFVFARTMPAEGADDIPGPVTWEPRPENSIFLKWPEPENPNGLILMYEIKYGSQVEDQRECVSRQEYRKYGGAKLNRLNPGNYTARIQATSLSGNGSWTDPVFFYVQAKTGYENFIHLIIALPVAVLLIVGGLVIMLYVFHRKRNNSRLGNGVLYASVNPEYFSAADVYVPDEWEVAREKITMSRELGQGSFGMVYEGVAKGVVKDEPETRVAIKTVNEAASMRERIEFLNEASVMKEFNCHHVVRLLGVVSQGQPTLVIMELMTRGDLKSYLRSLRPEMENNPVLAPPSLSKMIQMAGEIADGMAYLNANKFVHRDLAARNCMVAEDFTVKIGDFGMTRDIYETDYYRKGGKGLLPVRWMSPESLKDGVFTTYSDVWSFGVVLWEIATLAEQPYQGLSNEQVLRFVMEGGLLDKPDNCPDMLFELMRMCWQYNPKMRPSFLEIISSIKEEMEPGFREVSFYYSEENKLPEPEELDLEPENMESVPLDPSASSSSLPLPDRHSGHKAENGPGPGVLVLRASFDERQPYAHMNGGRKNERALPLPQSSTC
Description: as §1, §2, §3, §4, §5, §6, §7

EGFR = biological target: T3, EGFR (Homo sapiens, UniProt P00533); test: RTK-Assay (ELISA, chemiluminescence); format: biochemical
T3 construct: GST (N); purchased Biomol
T3 sequence (P00533 25-1210, species assumed): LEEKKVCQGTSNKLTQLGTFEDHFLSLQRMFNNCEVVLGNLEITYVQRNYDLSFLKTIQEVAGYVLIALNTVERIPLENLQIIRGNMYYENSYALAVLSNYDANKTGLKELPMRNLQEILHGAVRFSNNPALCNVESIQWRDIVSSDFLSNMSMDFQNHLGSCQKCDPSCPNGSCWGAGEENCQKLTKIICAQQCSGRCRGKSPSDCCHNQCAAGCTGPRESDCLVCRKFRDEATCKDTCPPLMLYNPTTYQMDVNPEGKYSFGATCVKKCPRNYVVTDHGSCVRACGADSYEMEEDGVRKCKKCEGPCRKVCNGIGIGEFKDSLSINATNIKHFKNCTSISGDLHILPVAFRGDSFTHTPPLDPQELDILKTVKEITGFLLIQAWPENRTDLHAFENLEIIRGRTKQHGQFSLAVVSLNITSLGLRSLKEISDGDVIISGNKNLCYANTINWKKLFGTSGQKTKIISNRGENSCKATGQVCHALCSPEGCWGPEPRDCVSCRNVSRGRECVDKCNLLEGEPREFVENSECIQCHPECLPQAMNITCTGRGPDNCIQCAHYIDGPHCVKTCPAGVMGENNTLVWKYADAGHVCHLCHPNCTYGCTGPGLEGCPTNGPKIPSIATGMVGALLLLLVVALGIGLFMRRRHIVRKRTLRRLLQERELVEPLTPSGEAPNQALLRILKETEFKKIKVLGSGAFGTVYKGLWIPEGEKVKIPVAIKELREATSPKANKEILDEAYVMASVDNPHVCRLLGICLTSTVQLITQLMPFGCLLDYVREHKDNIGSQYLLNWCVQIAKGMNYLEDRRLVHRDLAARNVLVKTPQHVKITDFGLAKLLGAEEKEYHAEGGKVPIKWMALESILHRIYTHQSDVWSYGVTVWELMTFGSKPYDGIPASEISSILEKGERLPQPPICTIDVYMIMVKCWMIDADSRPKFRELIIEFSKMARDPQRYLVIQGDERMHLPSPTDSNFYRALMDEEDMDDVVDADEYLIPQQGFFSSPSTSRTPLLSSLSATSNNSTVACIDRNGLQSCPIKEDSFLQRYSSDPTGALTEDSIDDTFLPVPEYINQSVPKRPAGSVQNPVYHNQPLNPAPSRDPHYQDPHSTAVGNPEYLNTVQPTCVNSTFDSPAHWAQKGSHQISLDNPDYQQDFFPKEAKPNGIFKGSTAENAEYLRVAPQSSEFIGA
Description: as §1, §2, §3, §4, §5, §6, §7

Tie2 = biological target: T4, Tie2 (Homo sapiens, UniProt Q02763); test: RTK-Assay (ELISA, chemiluminescence); format: biochemical; conditions: read-out: IC50 Tie-2
T4 construct: GST (N); purchased Biomol
T4 sequence (Q02763 23-1124, species assumed): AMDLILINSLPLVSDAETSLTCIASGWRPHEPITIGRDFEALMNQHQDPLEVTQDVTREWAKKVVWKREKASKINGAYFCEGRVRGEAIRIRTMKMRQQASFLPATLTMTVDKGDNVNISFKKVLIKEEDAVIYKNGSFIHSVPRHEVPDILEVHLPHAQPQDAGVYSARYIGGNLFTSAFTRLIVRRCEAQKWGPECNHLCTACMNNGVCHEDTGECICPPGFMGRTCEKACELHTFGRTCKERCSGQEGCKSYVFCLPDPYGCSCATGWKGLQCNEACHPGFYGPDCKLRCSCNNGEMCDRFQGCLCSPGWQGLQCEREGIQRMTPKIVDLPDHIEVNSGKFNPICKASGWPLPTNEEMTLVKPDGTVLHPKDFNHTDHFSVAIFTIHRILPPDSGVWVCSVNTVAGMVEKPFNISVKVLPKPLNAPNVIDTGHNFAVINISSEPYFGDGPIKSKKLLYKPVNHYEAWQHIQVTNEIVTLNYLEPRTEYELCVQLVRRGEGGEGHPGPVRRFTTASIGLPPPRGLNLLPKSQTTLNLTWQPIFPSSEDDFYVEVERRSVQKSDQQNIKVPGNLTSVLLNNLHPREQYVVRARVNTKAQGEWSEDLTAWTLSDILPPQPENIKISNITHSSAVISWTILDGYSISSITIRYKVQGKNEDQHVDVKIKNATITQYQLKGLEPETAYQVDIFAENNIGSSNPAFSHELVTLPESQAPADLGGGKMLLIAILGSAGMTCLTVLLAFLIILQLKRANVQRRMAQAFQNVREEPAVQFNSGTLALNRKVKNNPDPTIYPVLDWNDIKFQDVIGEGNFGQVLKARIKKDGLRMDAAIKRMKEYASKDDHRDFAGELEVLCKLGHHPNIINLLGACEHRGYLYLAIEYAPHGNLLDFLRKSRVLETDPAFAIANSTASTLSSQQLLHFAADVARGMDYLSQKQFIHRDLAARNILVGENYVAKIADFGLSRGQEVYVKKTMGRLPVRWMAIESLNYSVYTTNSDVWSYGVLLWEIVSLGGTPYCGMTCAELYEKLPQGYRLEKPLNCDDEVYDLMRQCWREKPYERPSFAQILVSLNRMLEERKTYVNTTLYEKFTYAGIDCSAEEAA
Description: as §1, §2, §3, §4, §5, §6, §7

## CC(C)Nc1nc(-c2ccco2)nc2ccc(/C=C/C(C)(C)O)cc12 [Compound (A), (E)-4-(2-(Furan-2-yl)-4-(isopropylamino)quinazolin-6-yl)-2-methylbut-3-en-2-ol]
HeLa cells; 20µM
  % of cells 2<n<4: 17.6%
  % of cells 2n: 58.5%
  % of cells 4n: 19.2%
  % of cells <2n: 4.4%
  % of cells >4n: 0.7%
HeLa cells; 40µM
  % of cells 2<n<4: 17.7%
  % of cells 2n: 58.5%
  % of cells 4n: 19.9%
  % of cells <2n: 3.8%
  % of cells >4n: 3.8%
HeLa cells; 100µM
  % of cells 2<n<4: 15.5%
  % of cells 2n: 48.4%
  % of cells 4n: 20.8%
  % of cells <2n: 13.8%
  % of cells >4n: 2.1%
HeLa cells
  effect on DNA content / distribution of cells in the cell cycle stages: did not alter the distribution of cells in the different cell cycle stages
Flt-4 (VEGFR3)
  IC50: 4.24 µM
IGFR
  IC50: 41.5 µM
EGFR
  IC50: > 100 µM
Tie2
  IC50: > 100 µM

## CC(C)Nc1nc(-c2ccco2)nc2ccc(C#CCO)cc12 [Compound (C), 3-(2-(Furan-2-yl)-4-(isoiproipylamino)quinazolin-6-yl)prop-2-yn-l-ol]
HeLa cells; 20µM
  % of cells 2<n<4: 17.5%
  % of cells 2n: 55.2%
  % of cells 4n: 19.0%
  % of cells <2n: 7.6%
  % of cells >4n: 1.3%
HeLa cells; 40µM
  % of cells 2<n<4: 20.0%
  % of cells 2n: 47.2%
  % of cells 4n: 21.2%
  % of cells <2n: 10.5%
  % of cells >4n: 1.8%
HeLa cells; 100µM
  % of cells 2<n<4: 25.2%
  % of cells 2n: 21.4%
  % of cells 4n: 41.8%
  % of cells <2n: 10.0%
  % of cells >4n: 1.5%
HeLa cells
  effect on DNA content / distribution of cells in the cell cycle stages: increased amount of 4n DNA; also recorded: dose dependent increase in the proportion of cells with more than 2n DNA content
Flt-4 (VEGFR3)
  IC50: > 100 µM
IGFR
  IC50: > 100 µM
EGFR
  IC50: > 100 µM
Tie2
  IC50: > 100 µM
